Data from patent publication US4621083A, “PAF-antagonistic diazepines” (Boehringer Ingelheim KG, priority 1984, dated 1986).

tested on: PAF-induced aggregation of human thrombocytes; test: Inhibition of PAF-induced blood platelet aggregation in vitro; type: cell-based; details: Homo sapiens, read-out: PAF-Antag. IC50
Experimental: 1. Inhibition of blood platelet aggregation in vitro
The PAF-induced aggregation of human thrombocytes in vitro is used to determine PAF-antagonistic activity. To obtain thrombocyte-rich plasma (TRP), blood is taken from an uncongested vein using a plastic syringe containing 3.8% sodium citrate solution. The ratio of sodium citrate solution to blood is 1:9. After careful mixing the citrate blood is centrifuged for 20 minutes at 150 g (1200 rpm). The thrombocyte aggregation is measured using the method devised by Born and Cross (G. V. R. Born and M. J. Cross, J. Physiol. 168, 178 (1963)), by adding an aggregation initiator (PAF) to the TRP with constant stirring.
The test substance is added 2 to 3 minutes before aggregation is initiated in a volume of 10 ul. Either distilled water, ethanol and/or dimethylsulphoxide (each in suitable concentrations) can be used as solvent.
Control mixtures contain corresponding volumes of these solvents. After the initial absorption has been recorded (2 to 3 minutes) aggregation is induced with PAF (5×10^-8 M).
The maximum of the first aggregation wave is used to assess the effects of the substance. The PAF-induced maximum absorption rate (=maximum aggregation×100%) is tested at the same time in a parallel mixture (=control mixture in one of the channels of the two-channel aggregometer) as each test mixture (second channel) and is used as a 100% value.
The aggregation value attained under the effect of the test substance is given as a percentage of the control value, i.e. less than 100% in the case of an inhibition of aggregation and over 100% in the case of an increase.
Each test substance is investigated at concentrations of from 10^-3 to 10^-8 M with a random sampling of n=4 with regard to an inhibitory effect on the PAF-induced thrombocyte aggregation. Then a concentration-activity curve is drawn up using 3 concentrations and the IC50 is determined (concentration giving a 50% inhibition of aggregation).

`Cc1cnc2n1-c1sc(Br)cc1C(c1ccccc1Cl)=NC2` [compound 30] and `Cc1nnc2n1-c1sc(Br)cc1C(c1ccccc1Cl)=NC2` [compound 10] cannot be ordered by IC50: less than 10 µM for the first, 0.5 µM for the second.

`Cc1nnc2n1-c1c(Cl)cccc1C(c1ccccc1Cl)=NC2` [compound 71] and `Cc1nnc2n1-c1cccc(Cl)c1C(c1ccccc1Cl)=NC2` [compound 64] are within 1.5-fold of each other in IC50: 300 µM for the first, 280 µM for the second.

Compared with `Cc1nnc2n1-c1cc(F)ccc1C(c1ccccc1Cl)=NC2` [compound 72], `Cc1ccc2c(c1)-n1c(C)nnc1CN=C2c1ccccc1Cl` [compound 73] is 4.3-fold higher in IC50: 56 µM for the first, 243 µM for the second.

`Cc1nnc2n1-c1sc(C[S+](C)[O-])cc1C(c1ccccc1Cl)=NC2` (stereo not drawn) [compound 46] and `CCc1cc2c(s1)-n1c(C)nnc1CN=C2c1ccccc1Cl` [compound 8] cannot be ordered by IC50: less than 10 µM for the first, less than 5 µM for the second.

`Cc1ncc2n1-c1ccc(Cl)cc1C(c1ccccc1F)=NC2` [compound 31] and `CCOC(=O)c1ncc2n1-c1ccc(Cl)cc1C(c1ccccc1F)=NC2` [compound 70] are within 1.5-fold of each other in IC50: 690 µM for the first, 730 µM for the second.

First: Clc1ccc2c(c1)C(c1ccccc1Cl)=NCc1nncn1-2 [compound 54]
Second: Clc1ccc2c(c1)C(c1ccccc1Cl)=NCc1cncn1-2 [compound 61]
The IC50 of the first is 2.1-fold lower: 115 µM for the first, 246 µM for the second.

Compared with `COc1ccc2c(c1)C(c1ccccc1Cl)=NCc1nnc(C)n1-2` [compound 43], `Cc1ccc2c(c1)C(c1ccccc1Cl)=NCc1nnc(C)n1-2` [compound 6] is 3.7-fold lower in IC50: 33.3 µM for the first, 9.1 µM for the second. The second is the more potent here.

Going from `CC(=CC(=O)O)c1cc2c(s1)-n1c(C)nnc1CN=C2c1ccccc1Cl` [compound 59] to `CC(=O)c1cc2c(s1)-n1c(C)nnc1CN=C2c1ccccc1Cl` [compound 68], the IC50 falls from greater than 50 µM to less than 10 µM.

`Cc1cc2c(cc1C)-n1c(C)nnc1CNC2c1ccccc1Cl` (stereo not drawn) [compound 101] and `Cc1ccc2c(c1)-n1c(C)nnc1CNC2c1ccccc1Cl` (stereo not drawn) [compound 105] are within 1.5-fold of each other in IC50: 342 µM for the first, 277 µM for the second.

Compared with `Cc1nnc2n1-c1ccsc1C(c1ccccc1)=NC2` [compound 23], `Cc1nnc2n1-c1ccsc1C(c1ccccc1Cl)=NC2` [compound 24] is 2.6-fold lower in IC50: 19.8 µM for the first, 7.6 µM for the second.

`Cc1nnc2n1-c1ccc([N+](=O)[O-])cc1C(c1ccccc1Cl)=NC2` [compound 62] and `Cc1nnc2n1-c1ccc(Cl)cc1C(c1ccccc1Cl)=NC2` [compound 4, Triazolam, reference compound] are within 1.5-fold of each other in IC50: 10 µM for the first, 9 µM for the second.

Compared with `CCOC(=O)c1ccc2c(c1)-n1c(C)nnc1CN=C2c1ccccc1` [compound 79], `CC(=O)c1ccc2c(c1)C(c1ccccc1)=NCc1nnc(C)n1-2` [compound 82] is 1.7-fold higher in IC50: 38 µM for the first, 63 µM for the second. The first is the more potent here.

`Cc1nnc2n1-c1sc(C(C)O)cc1C(c1ccccc1Cl)=NC2` (stereo not drawn) [compound 77] and `Cc1nnc2n1-c1sc(Cl)cc1C(c1ccccc1Cl)=NC2` [compound 9] cannot be ordered by IC50: less than 10 µM for the first, less than 2 µM for the second.

Going from `Cc1nnc2n1-c1sc([N+](=O)[O-])cc1C(c1ccccc1Cl)=NC2` [compound 12] to `Cc1nnc2n1-c1sc(C(=O)O)cc1C(c1ccccc1Cl)=NC2` [compound 67], the IC50 rises from 2.6 µM to greater than 100 µM.

First: CN(C)CCc1nnc2n1-c1sc(Br)cc1C(c1ccccc1Cl)N(C)C2 (stereo not drawn) [compound 96]
Second: Cc1nnc2n1-c1sc(Br)cc1C(c1ccccc1Cl)N(C)C2 (stereo not drawn) [compound 95]
The IC50 of the first is 3.5-fold higher: 26 µM for the first, 7.4 µM for the second. The second is the more potent here.

`Cc1nnc2n1-c1sc(Br)cc1C(c1ccccc1Cl)NC2` (stereo not drawn) [compound 89] and `Cc1nnc2n1-c1sc(Br)cc1C(c1ccccc1Br)NC2` (stereo not drawn) [compound 91] cannot be ordered by IC50: less than 10 µM for the first, less than 5 µM for the second.

Going from `Cc1nnc2n1-c1ccc(Cl)cc1C(c1ccccc1)=NC2` [compound 3, Alprazolam, reference compound] to `Clc1ccc2c(c1)C(c1ccccc1)=NCc1nnc(Br)n1-2` [compound 55], the IC50 rises from 14 µM to 119 µM (8.5-fold). The first is the more potent here.

Going from `Cc1cc2c(cc1C)-n1c(C)cnc1CN=C2c1ccccc1Cl` [compound 48] to `Cc1cc2c(cc1C)-n1c(C)nnc1CN=C2c1ccccc1Cl` [compound 65], the IC50 falls from 528 µM to 217 µM (2.4-fold).

`Clc1ccc2c(c1)C(c1ccccc1Cl)=NCc1nnc(Br)n1-2` [compound 57] and `COc1nnc2n1-c1ccc(Cl)cc1C(c1ccccc1Cl)=NC2` [compound 56] are within 1.5-fold of each other in IC50: 25 µM for the first, 20.6 µM for the second.

`Cc1nnc2n1-c1sc(C#N)cc1C(c1ccccc1Cl)=NC2` [compound 58] and `CSCc1cc2c(s1)-n1c(C)nnc1CN=C2c1ccccc1Cl` [compound 11] cannot be ordered by IC50: 3.8 µM for the first, less than 5 µM for the second.

First: CCOC(=O)c1ncn2c1CN=C(c1ccccc1Cl)c1cc(Br)sc1-2 [compound 52]
Second: CCOC(=O)c1ncn2c1CN=C(c1ccccc1Cl)c1ccsc1-2 [compound 49]
The IC50 of the first is 1.6-fold lower: 134 µM for the first, 210 µM for the second.

First: Cc1nnc2n1-c1ccccc1C(c1ccccc1Cl)NC2 (stereo not drawn) [compound 85]
Second: Cc1ccccc1C1NCc2nnc(C)n2-c2ccccc21 (stereo not drawn) [compound 98]
The IC50 of the first is 7.2-fold lower: 8.7 µM for the first, 63 µM for the second.

`CCc1cc2c(s1)-n1c(C)nnc1CNC2c1ccccc1Cl` (stereo not drawn) [compound 90] and `Cc1nnc2n1-c1sc(Cl)cc1C(c1ccccc1Cl)NC2` (stereo not drawn) [compound 88] cannot be ordered by IC50: less than 5 µM for the first, less than 5 µM for the second.

Compared with `Cc1nnc2n1-c1ccccc1C(c1ccccc1Cl)=NC2` [compound 2], `Cc1nnc2n1-c1cc(Cl)ccc1C(c1ccccc1Cl)=NC2` [compound 5] is 35-fold higher in IC50: 8.6 µM for the first, 300 µM for the second. The first is the more potent here.

`CCOC(=O)c1ccn2c1CN=C(c1ccccc1Cl)c1cc(Cl)ccc1-2` [compound 60] and `Fc1ccccc1C1=NCc2cncn2-c2ccc(Cl)cc21` [compound 69] are within 1.5-fold of each other in IC50: 444 µM for the first, 580 µM for the second.

First: CCOC(=O)C=C(C)c1cc2c(s1)-n1c(C)nnc1CN=C2c1ccccc1Cl [compound 83]
Second: Cc1nnc2n1-c1sc(CC(=O)O)cc1C(c1ccccc1Cl)=NC2 [compound 76]
The IC50 of the first is lower: less than 50 µM for the first, greater than 100 µM for the second. The first is the more potent here.

Compared with `Cc1ccc2c(c1)C(c1ccccc1Cl)N(C)Cc1nnc(C)n1-2` (stereo not drawn) [compound 104], `Cc1ccc2c(c1)C(c1ccccc1Cl)NCc1nnc(C)n1-2` (stereo not drawn) [compound 102] is lower in IC50: 81 µM for the first, less than 5 µM for the second.

Compared with `CC(C)(O)c1ccc2c(c1)C(c1ccccc1)=NCc1nncn1-2` [compound 81], `Cc1nc2c(s1)C(c1ccccc1)=NCc1nncn1-2` [compound 26] is 6.8-fold higher in IC50: 103 µM for the first, 700 µM for the second.

`Cc1nnc2n1-c1sc(Br)cc1C(c1ccccc1Cl)N(CCO)C2` (stereo not drawn) [compound 94] and `CCC1NC(c2ccccc2Cl)c2cc(Br)sc2-n2c(C)nnc21` (stereo not drawn) [compound 97] cannot be ordered by IC50: 11 µM for the first, less than 100 µM for the second.

Going from `NCc1nnc2n1-c1sc(Br)cc1C(c1ccccc1Cl)NC2` (stereo not drawn) [compound 93] to `Clc1ccccc1C1NCc2nncn2-c2sc(Br)cc21` (stereo not drawn) [compound 92], the IC50 rises from less than 50 µM to 140 µM. The first is the more potent here.

Compared with `COC(=O)c1ccc2c(c1)C(c1ccccc1)=NCc1ncc(C)n1-2` [compound 78], `Cc1nnc2n1-c1ccccc1C(c1ccccc1)=NC2` is 2-fold higher in IC50: 8 µM for the first, 16 µM for the second.

Compared with `Cc1nnc2n1-c1sccc1C(c1ccccc1Cl)=NC2` [compound 7], `Cc1nnc2n1-c1ccc(C#N)cc1C(c1ccccc1Cl)=NC2` [compound 75] is lower in IC50: 22 µM for the first, less than 20 µM for the second.

Going from `Cc1nnc2n1-c1c(nnn1C)C(c1ccccc1Cl)=NC2` [compound 29] to `CCn1nc(C)c2c1-n1c(C)nnc1CN=C2c1ccccc1Cl` [compound 27], the IC50 falls from 950 µM to 270 µM (3.5-fold).

`Clc1ccc2c(c1)C(c1ccccc1Cl)=NCc1nnc(C3CC3)n1-2` [compound 63] and `Cc1nnc2n1-c1ccc(Cl)cc1C(c1ccccc1Cl)NC2` (stereo not drawn) [compound 86] are within 1.5-fold of each other in IC50: 7 µM for the first, 8.3 µM for the second.

`Clc1ccccc1C1=NCc2cncn2-c2sccc21` [compound 50] and `Clc1ccccc1C1=NCc2cncn2-c2sc(Br)cc21` [compound 53] are within 1.5-fold of each other in IC50: 87 µM for the first, 97.4 µM for the second.

`Cc1nnc2n1-c1sc(CS(C)(=O)=O)cc1C(c1ccccc1Cl)=NC2` [compound 47] and `Cc1nnc2n1-c1sc3c(c1C(c1ccccc1Cl)=NC2)CCOC3` [compound 44] cannot be ordered by IC50: less than 10 µM for the first, less than 5 µM for the second.

Compared with `COc1ccc2c(c1)C(c1ccccc1Cl)NCc1nnc(C)n1-2` (stereo not drawn) [compound 100], `Cc1nnc2n1-c1cc(Cl)ccc1C(c1ccccc1Cl)NC2` (stereo not drawn) [compound 87] is higher in IC50: less than 50 µM for the first, 190 µM for the second. The first is the more potent here.

`COc1ccccc1C1NCc2nnc(C)n2-c2ccccc21` (stereo not drawn) [compound 99] and `Cc1csc2c1-n1c(C)nnc1CN=C2c1ccccc1` [compound 22] cannot be ordered by IC50: 218 µM for the first, greater than 100 µM for the second.

`Cc1nnc2n1-c1sc3c(c1C(c1ccccc1Cl)=NC2)CCNC3` [compound 45] showed an IC50 of less than 10 µM.

same assay, conditions: table 3 (formula with R7), human thrombocyte-rich plasma, aggregation induced with PAF 5×10^-8 M, read-out: PAF-Antag. IC50

For `CCOC(=O)c1nc(C)n2c1CNC(c1ccccc1Cl)c1cc(Cl)ccc1-2` (stereo not drawn) [compound 103], the IC50 was 519 µM.
